One molecule from patent US8431595B2, “Furanopyridine cannabinoid compounds and related methods of use” (The University of Tennessee Research Foundation, priority 2009, dated 2013) can be followed below.

The assay deals with glioblastoma brain cancer cell line LN-229. Nature of the assay: Cytotoxicity assay (CCK8 viability). The assay is classed as cell-based. The note with it: Homo sapiens, LN-229 cells, 48 hrs. Here is the method:
Cytoxocity assay: Cells are seeded on a 96 well polystyrene plate in full serum media at a density of 75,000 cells per milliliter, 100 μL per well. Plates are incubated at 37° C. and 5% CO2 for 24 hours to allow cell attachment. Drug solutions are prepared in DMSO at 100× concentration and mixed 1:100 in 1% FBS media to yield the desired concentration. Drug-media mixtures are vortexed immediately prior to administration to cells. […] of Cell Counting Kit 8 (CCK8, Dojindo# CK04-11) is added to each well to colormetrically assess viability. After 2-4 hours of incubation with the CCK8 dye, absorbance is read at 450 nm by a BioTek Synergy 2 plate reader.
The cytotoxicity of selected compounds against the glioblastoma brain cancer cell line LN-229 is depicted in Table 1.

For the molecule `CCCCCCC(C)(C)c1cc(O)c2c(-c3ccccc3)coc2n1` [Compound 4c, 6-(2-Methyloctan-2-yl)-3-phenylfuro[2,3-b]pyridin-4-ol], the half-maximal effective concentration (EC50) (as a rule, the concentration needed to bring the measured effect to its halfway point) worked out at 33.6 µM.
